Patent US9776967B2, “Carboxamide derivatives as pesticidal compounds” (priority 2013, dated 2017)

What was measured:
[1] = tested on: Nippostrongylus brasiliensis; experiment: In vitro assay with Nippostrongylus brasiliensis (NIPOBR), acetylcholine esterase readout; settings: adult worms, read-out: activity (reduction of AChE compared to negative control); for inhibition at 1 ppm: 1 ppm (1 μg/ml); for inhibition at 10 ppm: 10 ppm (10 μg/ml)
Description: In Vitro Assay with Nippostrongylus brasiliensis (NIPOBR)
Adult Nippostrongylus brasiliensis were washed with saline buffer containing 100 U/ml penicillin, 0.1 mg/ml streptomycin and 2.5 μg/ml amphotericin B. Test compounds were dissolved in DMSO and worms were incubated in medium in a final concentration of 10 μg/ml (10 ppm) respectively 1 μg/ml (1 ppm). An aliquot of the medium was used to determine the acetylcholine esterase activity in comparison to a negative control. The principle of measuring acetylcholine esterase as readout for anthelmintic activity was described in Rapson et al (1986) and Rapson et al (1987).

[2] = tested on: Cooperia curticei; experiment: In vitro assay with Cooperia curticei (COOPCU), larval mortality; settings: 120 h, read-out: activity (larval mortality)
Description: In Vitro Assay with Cooperia curticei (COOPCU)
(§1) Solvent: Dimethyl Sulfoxide
(§2) To produce a suitable preparation of active compound, 10 mg of active compound are dissolved in 0.5 ml solvent, and the concentrate is diluted with “Ringer's solution” to the desired concentration.
Approximately 40 nematode larvae (Cooperia curticei) are transferred into a test tube containing the compound solution.
After 5 days percentage of larval mortality is recorded. 100% efficacy means all larvae are killed; 0% efficacy means no larvae are killed.

[3] = tested on: Haemonchus contortus; experiment: In vitro assay with Haemonchus contortus (HAEMCO), larval mortality; settings: 120 h; for mortality at 20 ppm: read-out: activity (larval mortality)
Description: In Vitro Assay with Haemonchus contortus (HAEMCO)
as §1, §2
Approximately 40 larvae of the red stomach worm (Haemonchus contortus) are transferred into a test tube containing compound solution.
After 5 days percentage of larval mortality are recorded. 100% efficacy means all larvae are killed, 0% efficacy means no larvae are killed.

[4] = LogP by HPLC on reversed phase columns (EEC directive 79/831 Annex V.A8); format: physicochemical; settings: logP (HCOOH) [a]
Description: Calibration was done with straight-chain alkan2-ones (with 3 to 16 carbon atoms) with known Log P values (measurement of Log P values using retention times with linear interpolation between successive alkanones). Lambda-max-values were determined using UV-spectra from 200 nm to 400 nm and the peak values of the chromatographic signals.

[5] = tested on: Meloidogyne incognita; experiment: Meloidogyne incognita (MELGIN) assay, gall formation on salad seedlings; format: in vivo; settings: 336 h, after 14 days, read-out: nematicidal activity (percentage of gall formation; 100% = no galls)
Description: Meloidogyne incognita (MELGIN) Assay
Solvent: 125.0 parts by weight of acetone
To produce a suitable preparation of active compound, 1 part by weight of active compound is mixed with the stated amount of solvent, and the concentrate is diluted with water to the desired concentration.
Vessels are filled with sand, a solution of the active ingredient, a suspension containing eggs and larvae of the southern root-knot nematode (Meloidogyne incognita) and salad seeds. The salad seeds germinate and the seedlings grow. Galls develop in the roots.
After 14 days the nematicidal activity is determined on the basis of the percentage of gall formation. 100% means no galls were found and 0% means the number of galls found on the roots of the treated plants was equal to that in untreated control plants.

| SMILES | inhibition at 1 ppm [1] | inhibition at 10 ppm [1] | mortality at 20 ppm [2] | mortality at 20 ppm [3] | chromatographic logP [4] | pest or weed control at 20 ppm [5] | Emax at 0.8 ppm ([3]; HAEMCO, 0.8 ppm, 5dat, comparative example, read-out: % Efficacy) | Emax at 4 ppm ([3]; HAEMCO, 4 ppm, 5dat, comparative example, read-out: % Efficacy) | Emax at 20 ppm ([3]; HAEMCO, 20 ppm, 5dat, comparative example, read-out: % Efficacy) |
| --- | --- | --- | --- | --- | --- | --- | --- | --- | --- |
| O=C(NCC(F)(F)c1ncc(-c2ccc3c(c2)OCO3)cc1Cl)c1ccccc1C(F)(F)F [Example 8] | ≥ 60% | ≥ 60% | 100% | 100% | 3.53 | 100% |  |  |  |
| O=C(NCC(F)(F)c1ncc(-c2cc(Cl)cc(Cl)c2)cc1Cl)c1ccccc1C(F)(F)F [Example 11] | ≥ 60% | ≥ 60% | 100% | 100% | 4.64 | 90% |  |  |  |
| O=C(NCC(F)(F)c1ncc(-c2ccc(F)c(F)c2)cc1Cl)c1ccccc1C(F)(F)F [Example 14] | ≥ 60% | ≥ 60% | 100% | 100% | 3.84 | 100% |  |  |  |
| O=C(NCC(F)(F)c1ncc(-c2ccc(Cl)cc2Cl)cc1Cl)c1ccccc1C(F)(F)F [Example 15] | ≥ 60% | ≥ 60% | 100% | 100% | 4.57 | 90% |  |  |  |
| O=C(NCC(F)(F)c1ncc(-c2ccc(F)cc2)cc1Cl)c1ccccc1C(F)(F)F [Example 24] | ≥ 60% | ≥ 60% | 100% | 100% | 3.74 | 100% | 100% | 100% | 100% |
